In patent publication US20240366648A1, “NAD-AUGMENTATION THERAPY FOR PARKINSON'S DISEASE” (Vestlandets Innovasjonsselskap AS (VIS), priority 2021, published 2024):

System: cerebral metabolism
Test: FDG-PET metabolic brain network analysis (NRRP/PDRP), phase I trial
Assay type: in vivo, human
Protocol: PET-MRI imaging was performed with a 3T Siemens Biograph mMR scanner, software version VE11P-SPO3. Subjects were administered 200 MBq of 18F Fluorodeoxyglucose (FDG) before being positioned in the scanner. After 31P-MRS spectra had been acquired, an 8-channel Siemens mMR Head coil was used for further MR imaging, which was performed simultaneously with FDG PET. In all subjects, PET acquisition began 25 to 30 minutes after the injection of FDG and lasted 30 minutes. The resulting emission data were reconstructed using Siemens HD-PET algorithm with Siemens HiRes Brain MRAC, with voxel size of 2.3×2.3×5.0 mm^3. PET images were anonymized and archived as DICOM files with a matrix size of 344×344×127 and an isotropic voxel size of 2.09×2.09×2.03 mm^3.
FDG-PET scans were transferred electronically to the Center for Neurosciences at The Feinstein Institutes for Medical Research (Manhasset, NY, USA) and analyzed using automated computing pipelines implemented in MATLAB 7.5 (MathWorks, Natick, MA) using in-house Scan Analysis and Visualization (ScAnVP) software (available at http://feinsteinneuroscience.orq). Images were first pre-processed using Statistical Parametric Mapping (SPM8) software (http://fil.ion.ucl.ac.uk/spm; Wellcome Centre for Human Neuroimaging, London, UK). Of the 30 participants, the baseline scan of one NR subject was excluded on technical grounds. In the remaining subjects, FDG-PET scans acquired at visit 1 and visit 2 were aligned to produce a mean image, which was spatially normalized in standard Montreal Neurological Institute (MNI) anatomic space along with the individual scans from each time point. The normalized images were then smoothed with a 10-mm Gaussian filter in three dimensions to enhance the signal to noise ratio.
For the PET-analyses, the subjects in the NR group were classified based on their cerebral NAD-response, measured by 31P-MRS. Subjects showing increased cerebral NAD levels at visit 2 were termed “MRS-responders,” whereas subjects showing no increase in cerebral NAD were termed “MRS non-responders”.
To identify an NR-related metabolic pattern (NRRP), we analyzed paired metabolic scan data from the 10 MRS responders in the NR group (ATP-beta; NAD-total; ATP-alpha; ATP-gamma; PCr (Phosphocreatine); MP (membrane phospholipids); GPC (glycerophosphocholine); GPE (glycerophosphoethanolamine); Pi (inorganic phosphate); Pc (phosphocholine); PE (phosphoethanolamine); Total NAD/PCr; Total NAD/ATP-alpha) using ordinal trends/canonical variates analysis (OrT/CVA), a supervised form of principal component analysis (PCA) (Habeck C, Krakauer J W, Ghez C, Sackeim H A, Eidelberg D, Stern Y et al. A new approach to spatial covariance modeling of functional brain imaging data: ordinal trend analysis. Neural computation 2005; 17: 1602-1645).
This multivariate approach is designed to detect and quantify regional covariance patterns (i.e., metabolic networks) for which expression values (i.e., subject scores) increase or decrease with treatment in all or most of the subjects (Niethammer M, Tang C C, Vo A, Nguyen N, Spetsieris P, Dhawan V et al. Gene therapy reduces Parkinson's disease symptoms by reorganizing functional brain connectivity. Science translational medicine 2018; 10; Ko J H, Feigin A, Mattis P J, Tang C C, Ma Y, Dhawan V et al. Network modulation following sham surgery in Parkinson's disease. The Journal of clinical investigation 2014; 124: 3656-3666). […] Likewise, the reliability of the voxel loadings (i.e., region weights) on the resulting network topography was assessed using bootstrap resampling procedures (Mure H, Hirano S, Tang C C, Isaias I U, Antonini A, Ma Y et al. Parkinson's disease tremor—related metabolic network: characterization, progression, and treatment effects. Neuroimage 2011; 54: 1244-1253; Habeck C, Stern Y. Multivariate data analysis for neuroimaging data: overview and application to Alzheimer's disease. Cell biochemistry and biophysics 2010; 58: 53-67). […]

SMILES: NC(=O)c1ccc[n+]([C@@H]2O[C@H](CO)[C@@H](O)[C@H]2O)c1 [NR, nicotinamide riboside]
- NR-related metabolic pattern (NRRP) topography (10 MRS responders, OrT/CVA, PC1): bilateral metabolic reductions in the caudate and putamen, extending into the adjacent globus pallidus, and in the thalamus
- Zmax, reduced metabolic activity as part of the NRRP network (Anterior Cingulate (left), BA 32, MNI −4,44,18): 2.2
- Zmax, reduced metabolic activity as part of the NRRP network (Anterior Cingulate (right), BA 24, MNI 4,8,48): 2.3
- Zmax, reduced metabolic activity as part of the NRRP network (Anterior Cingulate (right), BA 32, MNI 4,46,−8): 2.6
- Zmax, reduced metabolic activity as part of the NRRP network (Lentiform Nucleus (left), Putamen, MNI −20,10,−8): 3.5
- Zmax, reduced metabolic activity as part of the NRRP network (Lentiform Nucleus (left), Putamen, MNI −28,−2,−2): 3.3
- Zmax, reduced metabolic activity as part of the NRRP network (Lentiform Nucleus (right), Putamen, MNI 22,10,−8): 3.9
- subjects with increased NRRP expression (MRS responders, p=0.018 permutation test): 8 of 10
- Zmax, reduced metabolic activity as part of the NRRP network (Middle Frontal Gyrus (left), BA 8, MNI −26,30,42): 1.9
- ordinal trend in NRRP expression (NR group as a whole, p=0.027 permutation test): remained significant
- correlation (r) of changes in NRRP expression with changes in UPDRS motor ratings, after excluding one data point (NR group, excluding greatest increase in UPDRS motor score, p=0.048): −0.556
- correlation (r) of changes in NRRP expression with changes in UPDRS motor ratings (NR group, p=0.026): −0.59
- correlation of PDRP changes with clinical outcome (NR group, p=0.73): no correlation
- Zmax, reduced metabolic activity as part of the NRRP network (Posterior Cingulate (bilateral), BA 31, MNI 0,−30,36): 3.5
- Zmax, reduced metabolic activity as part of the NRRP network (Precuneus (left), BA 7, MNI −6,−72,40): 2.6
- Zmax, reduced metabolic activity as part of the NRRP network (Prefrontal Cortex (right), BA 9, MNI 44,16,30): 3.0
- Zmax, reduced metabolic activity as part of the NRRP network (Superior Frontal Gyrus (left), BA 9, MNI −32,44,28): 2.5
- Zmax, reduced metabolic activity as part of the NRRP network (Superior Frontal Gyrus (left), BA 10, MNI −28,56,6): 2.5
- Zmax, reduced metabolic activity as part of the NRRP network (Thalamus (left), Anterior, MNI −10,−22,4): 2.5
- Zmax, reduced metabolic activity as part of the NRRP network (Thalamus (right), Medial Dorsal, MNI 8,−18,4): 3.0
